Experimental findings from PubChem BioAssay (NCI) are described below.

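Where inhibition never reached the appropriate level, the endpoint shown equals the highest concentration tested. Otherwise, values were interpolated linearly from a five-concentration, 48-hour dose response in 96-well plates. GI50: concentration for 50% inhibition of growth. TGI marks complete inhibition of growth.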 Where a SMILES comes first, the peptide text is derived from it. Residues, ends and D or L forms follow the SMILES beside them. [ ]: non-standard residue; d: D form. The star is where a group is joined. ξ: configuration not given here. *: point of attachment. ξF = NC(Cc1ccccc1)C(=O)O; Cbz = O=C(OCc1ccccc1)*; Boc = CC(C)(C)OC(=O)*; Aib = CC(C)(N)C(=O)O; OBn = c1ccc(CO*)cc1

Common to all, as to assay: inhibition of tumour cell growth, NCI panel, 48 h
Experiment [1] deals with NCI-H460 lung.
The subject of experiment [2] is HOP-92 NSCLC.
Experiment [3] concerns A498 renal.
The subject of experiment [4] is UACC-257 melanoma.
The subject of experiment [5] is M14 melanoma.
In experiment [6] the test system is HCC-2998 colon.
The test system of experiment [7] is MDA-MB-231 breast.
The test system of experiment [8] is NCI-H226 lung.

In the case of `O=c1c2cc(I)ccc2nc(SCc2n[nH]c(=S)o2)n1Cc1ccccc1`, the TGI amounted to 39.5 µM in experiment [1]; 27.9 µM in experiment [2]; 34.2 µM in experiment [3]; 38.1 µM in experiment [4]; 43.6 µM in experiment [5]; 35.3 µM in experiment [6]. The TGI amounted to 33.3 µM in experiment [7] and 27.6 µM in experiment [8].
As for `COc1cc(-c2n/c(=C\c3c(O)[nH]c4cc(Cl)ccc34)cc3c2=Nc2ccccc2-3)cc(OC)c1OC`, the GI50 in experiment [1] was 4.56 µM; in experiment [3], 7.12 µM; in experiment [4], 4.01 µM; in experiment [5], 2.41 µM; in experiment [6] it was 7.32 µM; in experiment [7], 3.17 µM. Moreover, the GI50 in experiment [8] is 3.85 µM. The TGI in experiment [1] is 81.7 µM; in experiment [3] it was 27.9 µM; in experiment [4], 18.8 µM; in experiment [5] it was 5.66 µM; in experiment [6] it was > 100 µM; in experiment [7], 11.3 µM. The TGI in experiment [8] was 21.9 µM.
As to `CC(C)(CCCCC(C)(C)C1NC(=O)N1)C1NC(=O)N1`, the TGI in experiment [1], in experiment [3], in experiment [5], in experiment [6], in experiment [7] and in experiment [8] was > 10 µM in each case.
As to `Oc1ccccc1C1=NOC(c2ccc(C(F)(F)F)cc2)C1` (centres undefined), the TGI in experiment [1], in experiment [3], in experiment [4], in experiment [5], in experiment [6] and in experiment [7] was > 50 µM throughout. Also, the TGI in experiment [8] was > 50 µM.
On to `COc1ccc(/C=C/C(=O)CC(=O)/C=C/c2ccc(OC)cc2)cc1`, for which the TGI in experiment [1], in experiment [4], in experiment [5], in experiment [6], in experiment [7] and in experiment [8] was > 100 µM each time.
On to `CCOC(=O)/C=C/[C@H](O)[C@@H](O)/C=C/C(=O)OCC`, for which the TGI in experiment [1] is 43 µM; in experiment [2] it was 33.5 µM; in experiment [3], > 100 µM; in experiment [4], > 100 µM; in experiment [6] it was > 100 µM; in experiment [7], > 100 µM. For the same compound, the TGI in experiment [8] is > 100 µM.
`NC(=O)C(=O)C(c1ccccc1)S(=O)(=O)Cc1ccccc1` (centres undefined): the TGI in experiment [1], in experiment [2], in experiment [4], in experiment [5], in experiment [6] and in experiment [7] was > 100 µM in each case. In addition, the TGI in experiment [8] was > 100 µM.
Turning to `CN(C)C=NCCN1CCOCC1`, the TGI in experiment [2], in experiment [3], in experiment [4], in experiment [5], in experiment [7] and in experiment [8] was > 100 µM in each case.
As to `Cc1ccc(N2CCN(CCC(=O)O)CC2)cc1`, the TGI in experiment [1], in experiment [2], in experiment [3], in experiment [4], in experiment [5] and in experiment [7] was > 100 µM throughout. In addition, the TGI in experiment [8] was > 100 µM.
Turning to `Cc1ccc(N=NN(C)C(=O)C(C)N)cc1` (centres undefined), the TGI in experiment [1], in experiment [2], in experiment [4], in experiment [5], in experiment [6] and in experiment [8] was > 100 µM each time.
`COc1ccc(N=Nc2c(C)c(C#N)c(=S)n(C3OC(CO)C(O)C(O)C3O)c2C)cc1` (centres undefined): the TGI in experiment [1] is > 100 µM; in experiment [2] it was 64.8 µM; in experiment [4] it was > 100 µM; in experiment [5] it was > 100 µM; in experiment [7] it was > 100 µM.
As to `NC(Cc1ccc(S(=O)(=O)O)cc1)C(=O)NC(Cc1ccc(S(=O)(=O)O)cc1)C(=O)NC(Cc1ccc(S(=O)(=O)O)cc1)C(=O)O` (centres undefined), the TGI in experiment [1], in experiment [3], in experiment [4], in experiment [5], in experiment [6] and in experiment [7] was > 100 µM in each case. Besides, the TGI in experiment [8] is > 100 µM.
For `COc1ccc(/C=C2/NC(=S)N=C2Cl)cc1`, the TGI in experiment [2], in experiment [3], in experiment [4], in experiment [5], in experiment [7] and in experiment [8] was > 100 µM throughout.
With `O=C(CN1CCOCC1)c1ccc2c(c1)oc(=O)n2CCN1CCCC1`, the TGI in experiment [1], in experiment [3], in experiment [4], in experiment [5], in experiment [7] and in experiment [8] was > 100 µM each time.
Take `CC1(C)C2CC3C4CC5(Nc6ccccc6C5N41)[C@]3(C)CC2=O` (some centres undefined): the TGI in experiment [1], in experiment [2], in experiment [3], in experiment [4], in experiment [6] and in experiment [7] was > 50 µM each time. The TGI in experiment [8] is > 50 µM.
Turning to `O=c1oc2ccc(Cl)cc2cc1-c1cn2ccccc2n1`, the TGI is > 62.5 µM in experiment [1]; > 73.3 µM in experiment [2]; > 100 µM in experiment [4]; > 100 µM in experiment [5]; > 100 µM in experiment [6]; > 52.7 µM in experiment [7]. Also, the TGI in experiment [8] is > 94.8 µM.
As for `CN(C)c1ccc(-c2ccc(N(C)C)c3n[se]nc23)c2n[se]nc12`, the TGI in experiment [1], in experiment [2], in experiment [3], in experiment [4], in experiment [6] and in experiment [7] was > 100 µM throughout. For the same compound, the TGI in experiment [8] is > 100 µM.
On to `O=C1NC(N2CCCCC2)=N/C1=C\c1ccccc1O`, for which the TGI in experiment [2], in experiment [3], in experiment [4], in experiment [5], in experiment [7] and in experiment [8] was > 100 µM in each case.
For the compound `SCc1ccc(CS)s1`, the TGI in experiment [1], in experiment [2], in experiment [4], in experiment [5], in experiment [6] and in experiment [7] was > 100 µM throughout.
In the case of `C(=N\OCCc1ccccc1)/c1cccnc1`, the TGI in experiment [1], in experiment [2], in experiment [4], in experiment [5], in experiment [6] and in experiment [7] was > 100 µM throughout. The TGI in experiment [8] was > 100 µM.
Take `CN(C)CCn1c(=O)c2ccc3c4c(nn3CCN(C)C)c3cc([N+](=O)[O-])ccc3n(c1=O)c24`: the TGI in experiment [1] was found to be 0.176 µM; in experiment [3], 1.68 µM; in experiment [4], 1.99 µM; in experiment [5], 1.29 µM; in experiment [6], 0.207 µM; in experiment [7], 0.491 µM. In experiment [8], this compound registered a TGI of 2.35 µM.
Consider `O=C(CC(=O)N1N=C(N(c2ccccc2)c2ccccc2)CC1c1ccccc1)Nc1ccc(Cl)cc1` (centres undefined), for which the TGI in experiment [1], in experiment [2], in experiment [4], in experiment [5], in experiment [6] and in experiment [7] was > 100 µM in each case. Moreover, the TGI in experiment [8] is > 100 µM.
As to `CCN(CC)c1ccc2cc(-c3nnc(-c4ccccc4O)o3)c(=O)oc2c1`, the TGI came out at 27.9 µM in experiment [1]; 29.6 µM in experiment [3]; 35.1 µM in experiment [4]; 24.3 µM in experiment [5]; 72.6 µM in experiment [6].
Consider `O=[N+]([O-])/C(C(Cl)=C(Cl)Cl)=C(\Nc1ccccc1)n1nnc2ccccc21`, for which the TGI in experiment [1], in experiment [3], in experiment [4], in experiment [5], in experiment [6] and in experiment [7] was > 100 µM throughout. Also, the TGI in experiment [8] was > 100 µM.
As for `N#Cc1nc(-c2ccccn2)oc1N`, the TGI in experiment [1], in experiment [2], in experiment [3], in experiment [4], in experiment [6] and in experiment [7] was > 100 µM each time. For the same compound, in experiment [8], the TGI is > 100 µM.
On to `O=C(Cc1nc2ncccc2[nH]c1=O)c1c[nH]c2ccccc12`, for which the TGI in experiment [1] is 34.4 µM; in experiment [2], 38.4 µM; in experiment [3], 31.7 µM; in experiment [4], 36.1 µM; in experiment [5], 43.1 µM; in experiment [6], 34.6 µM. For the same compound, in experiment [7], the TGI is 35.3 µM.
As for `COc1cc([C@@]23OC[C@@H]4[C@@H](OC[C@@H]42)c2cc4c(cc23)OCO4)cc(OC)c1OC`, the TGI in experiment [3] was 15.1 µM; in experiment [4] it was > 100 µM; in experiment [5], > 100 µM; in experiment [6], 0.0241 µM; in experiment [7], < 0.01 µM.
On to `NC(=O)/C=c1/c2ccccc2n2nc3ccccc3c12`, for which the TGI was > 100 µM in experiment [1]; 79.4 µM in experiment [3]; 41 µM in experiment [4]; 71.7 µM in experiment [5]; 36.8 µM in experiment [6]; 7.52 µM in experiment [7].
Regarding `CCOC(=O)c1nc2ccccc2nc1Oc1cc(OC)c(OC)c(OC)c1`, the TGI in experiment [1], in experiment [2], in experiment [3], in experiment [4], in experiment [5] and in experiment [6] was > 100 µM each time. Also, in experiment [7], the TGI was > 100 µM.
Turning to `[O-][N+]1=NC(c2ccccc2)=C1c1ccccc1`, the TGI in experiment [1], in experiment [2], in experiment [3], in experiment [4], in experiment [5] and in experiment [7] was > 50 µM in each case. Further, the TGI in experiment [8] was > 50 µM.
As to `Fc1cccc(Cl)c1C1SCc2nc3cc4ccccc4cc3n21` (centres undefined), the TGI in experiment [2] was 72.3 µM; in experiment [4], > 100 µM; in experiment [5], > 100 µM; in experiment [6], > 100 µM; in experiment [7] it was > 100 µM; in experiment [8], > 100 µM.
In the case of `COC1=CC(=O)c2c(c(COP(=O)(N(C)CCBr)N(C)CCBr)cn2C)C1=O`, the TGI in experiment [1] is 0.983 µM; in experiment [3] it was 0.964 µM; in experiment [4] it was 1.2 µM; in experiment [5] it was 0.259 µM; in experiment [6], 0.192 µM; in experiment [7], 1.07 µM.
As for `COc1cc(S(=O)(=O)Nc2ccc(-c3csc(N4C(=O)C(Cl)C4c4ccccc4)n3)cc2)ccc1Cl` (centres undefined), the TGI in experiment [1] was > 100 µM; in experiment [2], 33.7 µM; in experiment [3] it was 68.8 µM; in experiment [4], > 100 µM; in experiment [5], 59.2 µM.
Consider `COC(=O)C(C)(C)NC(=O)C(Cc1ccccc1)NC(=O)C(C)(C)NC(=O)OCc1ccccc1` (centres undefined) (Cbz-[Aib]-[ξF]-[Aib]-OMe), for which the TGI in experiment [1], in experiment [3], in experiment [4], in experiment [5], in experiment [6] and in experiment [7] was > 100 µM each time.
Take `O=C(O)CNn1c(SCC(=O)O)nnc(/C=C/c2c(O)ccc3ccccc23)c1=O`: the TGI in experiment [1] is > 100 µM; in experiment [3] it was > 100 µM; in experiment [4], > 100 µM; in experiment [5], 43.5 µM; in experiment [6], > 100 µM.
Turning to `CCOC(=O)c1c(-c2ccc(Br)cc2)ccn1C`, the TGI in experiment [1], in experiment [3], in experiment [4], in experiment [5], in experiment [6] and in experiment [7] was > 10 µM throughout. Besides, the TGI in experiment [8] was > 10 µM.
As for `CC(C)CC(NC(=O)OC(C)(C)C)C(=O)N1CCCC1C(=O)OCc1ccccc1` (stereo not drawn) (Boc-Leu-Pro-OBn; configuration not given here), the TGI in experiment [2], in experiment [3], in experiment [4], in experiment [5], in experiment [7] and in experiment [8] was > 100 µM throughout.
